Assay results as given in patent US9970037B2, “Methods and materials for making simvastatin and related compounds” (The Regents of the University of California, priority 2006, dated 2018).

Key:
LovD = molecular target: T1, LovD (Aspergillus terreus, UniProt Q9Y7D1); test: LovD transacylation assay: acyl transfer from acyl thioester to C8 hydroxyl of monacolin J, HPLC; format: biochemical; set-up: 6xHis (N); made in house; host or cells: E. coli BL21(DE3)/pAW31 (pET28a); conditions: for substrate competence for LovD / apparent kcat (initial turnover rate in the linear range) of monacolin J acylation: 1 mM monacolin J; for substrate competence for LovD: 4 mM acyl-CoA, 10 uM LovD, 10 hours; for Initial Velocity (ki): 1 mM MJ, 4 mM thioester substrate, 10 uM pure LovD, rate of initial turnover in the linear range; for Initial Velocity (ki) / apparent kcat (initial turnover rate in the linear range) of monacolin J acylation: 50 mM HEPES, pH 7.9; for apparent kcat (initial turnover rate in the linear range) of monacolin J acylation: 10 μM LovD, 4 mM acyl donor
T1 sequence (Q9Y7D1 1-413): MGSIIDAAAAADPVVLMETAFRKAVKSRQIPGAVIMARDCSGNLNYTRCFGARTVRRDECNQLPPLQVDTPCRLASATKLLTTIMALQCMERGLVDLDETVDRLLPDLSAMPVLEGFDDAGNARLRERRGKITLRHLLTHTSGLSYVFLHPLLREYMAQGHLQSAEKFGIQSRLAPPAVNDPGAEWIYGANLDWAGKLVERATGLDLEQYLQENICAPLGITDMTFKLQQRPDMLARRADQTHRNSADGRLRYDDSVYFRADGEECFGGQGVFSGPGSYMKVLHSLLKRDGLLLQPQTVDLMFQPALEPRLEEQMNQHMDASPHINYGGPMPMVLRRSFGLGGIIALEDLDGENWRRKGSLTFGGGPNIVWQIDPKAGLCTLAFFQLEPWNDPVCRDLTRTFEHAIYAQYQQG
Protocol: We first examined if an acyl-CoA can be used as substrate for the transacylation reaction. The uninterrupted gene of LovD was amplified from A. terreus genomic DNA using splice by overlap extension PCR and was inserted into the pET28a expression vector. Overexpression of soluble, N-terminal 6×His fusion LovD was performed in E. coli strain BL21(DE3)/pAW31. LovD was purified using Nickel-NTA affinity column to homogeneity (final yield˜40 mg/L). The substrate monacolin J (1 mM) was prepared through the LiOH hydrolysis of lovastatin and was added to a reaction mixture containing pure LovD (10 μM) and butyryl-CoA (4 mM), which is a commercially available acyl-CoA that best mimics the natural α-methylbutyrate side chain. The reaction mixture was incubated at room temperature, extracted with ethyl acetate and analyzed by HPLC and LC-MS (FIG. 5).
We assayed the tolerance of LovD towards different acyl substituents by performing the transacylation assay with various commercially available acyl-CoAs (Table 1A). All assays were perform with 1 mM monacolin J, 4 mM acyl-CoA and 10 uM LovD for 10 hours.
Expression and purification of LovD has been previously described in detail (see, e.g., Xie et al., 2006, Chem Biol 13: 1161-1169). The assays were performed at room temperature in 50 mM HEPES, pH 7.9. The initial velocities (ki) of the acyl substrates were determined with 10 μM LovD, 1 mM monacolin J and 4 mM of the thioester. The reaction mixture at different time points was quenched by trifluoroacetic acid (TFA), extracted with ethyl acetate, evaporated to dryness and redissolved in acetonitrile. The percent conversion of monacolin J to simvastatin was determined by HPLC analysis (C18). The linear range of the turnover rate is reported as ki in Table 1B. To determine the Km of DMB-S-MMP, the concentration of monacolin J is fixed at 2 mM, while the concentration of DMB-S-MMP was varied from 0.2 mM to 10 mM. DMSO is added to a final concentration of 5% to facilitate solubilization of DMB-S-MMP. To obtain Km of monacolin J, DMB-S-MMP concentration is fixed at 2 mM, while the concentration of monacolin J is varied from 0.2 mM to 5 mM.

BioH = molecular target: T2, BioH (Escherichia coli, UniProt P13001); test: BioH enzymatic hydrolysis assay of dimethylbutyryl thioesters, HPLC 234 nm; format: biochemical; conditions: 1 mM substrate, 10 nM BioH
T2 construct: The bioH gene was amplified from E. coli genomic DNA by PCR with flanking restriction sites NdeI and EcoRI; 6xHis (N); made in house; host or cells: E. coli BL21(DE3)/pXK8 (pET28a)
T2 sequence (P13001 1-256): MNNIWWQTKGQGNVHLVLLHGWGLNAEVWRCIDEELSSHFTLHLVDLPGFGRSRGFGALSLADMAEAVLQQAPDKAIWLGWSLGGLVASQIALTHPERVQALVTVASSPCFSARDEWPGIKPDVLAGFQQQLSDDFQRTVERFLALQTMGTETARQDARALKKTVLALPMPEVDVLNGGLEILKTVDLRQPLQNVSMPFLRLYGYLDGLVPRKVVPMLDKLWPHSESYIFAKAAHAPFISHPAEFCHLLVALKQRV
Protocol: (§1) The hydrolysis assays were performed at room temperature in 50 mM HEPES, pH 7.9. The thioester substrate DMB-S-MMP was added to final concentration between 0.1 mM and 1.0 mM. To facilitate solubilization of DMB-S-MMP, DMSO was added to a final concentration of 10% for all the samples. The reaction was initiated with the addition of BioH (0.01 μM) and quenched at desired time points (10, 20, 30 minutes) by adding equal volume of EA/1% AcOH. The organic phase was separated, dried and redissolved in 20 μL of ACN and analyzed with HPLC. The conversions of DMB-S-MMP to DMB-S-MPA were quantified by integration of the peaks at 234 nm. Comparison of the BioH catalytic efficiency towards the three dimethylbutyryl thioesters were performed at 1 mM substrate concentration and 10 nM BioH concentration.

E. coli BL21(DE3)/pAW31 = test: Whole cell biocatalysis with E. coli overexpressing LovD; format: cell-based, Escherichia coli; conditions: 4 mM acyl donor
Protocol: The BL21(DE3)/pAW31 overexpression strain was grown in a shake flask (200 mL) to an OD600 of 1.0, at which time 1 mM IPTG, 0.8 mM monacolin J and 4 mM of either benzoyl-SNAC or benzoyl-SMTG were added to the culture. Expression of LovD and bioconversion was performed at 18° C. The culture was extracted and analyzed for the formation of 8-benzoyl-monacolin J. When supplemented with benzoyl-SNAC, 84% conversion of monacolin J was detected within 20 hours post-induction. The product was lactonized and purified by a single silica-gel chromatography step. The NMR spectra confirmed the regioselective benzoylation of the C8 hydroxyl group as the diagnostic H8 multiplet is shifted downfield to δ 5.61.
Fermentation conditions: 500 mL culture with LB media with 30 mg/L kanamycin. At OD600 of 1.0, cells were concentrated to a final OD600 of 5.0 and induced with 1 mM IPTG. Substrates monacolin J and α-dimethylbutyryl-SNAC were added to a final concentration of 1 mM and 4 mM. At different time points, culture samples were collected, centrifuged, filtered and injected on to HPLC (20 μL). Extraction conditions: When maximum conversion was reached, the broth was acidified to pH of 2.0, extracted with ethyl acetate, dried and redissolved in toluene.
Whole-cell catalytic synthesis of simvastatin acid from MJ acid and DMB-S-MMP were performed as described (see, e.g., Xie et al., (2007) Appl Environ Microbiol 73: 2054-2060). The E. coli BL21(DE3)/pAW31 and YT2/pAW31 strains were cultured side-by-side for comparison. A single colony of the freshly transformed strains was used to inoculate a 5 mL LB culture supplemented with 35 mg/L kanamycin and grown overnight at 37° C. The next morning, 100 μL of the overnight culture was inoculated into 50 mL cultures containing LB broth, F1 minimal medium and F1 medium supplemented with 0.15 mg/L biotin. Growth rates were monitored by periodically measuring the OD600 reading. When OD600 reached ˜0.5, 100 μM IPTG was added to the culture and expression of LovD was performed at 20° C. for 16 hours. To mimic high density fermentation conditions, the cells were concentrated 10-fold before addition of substrates. Typically, a 14 mL aliquot of the culture was transferred to a 15 mL centrifuge tube and the cells were collected by centrifugation (4° C., 4000 g, 10 minutes). The cell pellet was gently resuspended in 1316 μl of the supernatant, followed by addition of 84 μl of a MJ acid stock solution (250 mM in H2O) (final concentration 15 mM). The concentrated culture was then separated into seven 200 μL samples and 1.2 μL of pure DMB-S-MMP was added to each sample (final concentration ˜25 mM). The culture was then shaken at 300 rpm at room temperature. At each time point, a total extraction was performed by adding 10 μL 20% SDS to lyse the cells, followed by liquid-liquid extraction with 500 μL EA/1% AcOH. The organic phase was removed, evaporated, and redissolved in 50 μL ACN for HPLC analysis. For the BL21(DE3) sample, an additional 1.2 μL aliquot of DMB-S-MMP was added after 12 hours to replenish the hydrolyzed substrates.
The E. coli BL21(DE3)/pAW31 strain was grown in LB medium at 37° C. to an OD600 of 0.5, at which time 100 μM IPTG was added to the culture and expression was performed at RT for 16 hours. A 10 ml culture was transferred to a 15 mL centrifuge tube. The cells were collected by centrifugation (4000 g, 10 minutes). The cell pellet was resuspended in 957 μl of the supernatant. The pH was adjusted to pH 7.9 with 1.0 N NaOH, followed by addition of 33 μl 450 mM MJ (final concentration 15 mM) and 6 μl pure DMB-S-MMP (final concentration ˜25 mM). The culture was then shaken at 300 rpm at room temperature. At each time point, a 4 μL aliquot was removed from the reaction mixture, quenched in 300 μL ethyl acetate containing 1% TFA.

[1] = substrate: CCC(C)(C)C(=O)SCCC(=O)OC; test: BioH enzymatic hydrolysis assay of dimethylbutyryl thioesters, HPLC 234 nm; format: biochemical, Escherichia coli; conditions: other: 50 mM HEPES, pH 7.9, 10% DMSO, 0.01 μM BioH
Protocol: as §1

CC(=O)CC(=O)SCCNC(=O)CCNC(=O)[C@H](O)C(C)(C)COP(=O)(O)OP(=O)(O)OC[C@H]1O[C@@H](n2cnc3c(N)ncnc32)[C@H](O)[C@@H]1OP(=O)(O)O [Acetoacetyl-CoA, reference compound]
substrate competence for LovD (LovD): excellent substrates

CCOC(=O)CCSC(=O)C(C)(C)CC [DMB-S-EMP, dimethylbutyryl-S-ethyl mercaptopropionate]
Initial Velocity (ki) (LovD): 0.70 min⁻¹ | rate of substrate hydrolysis by BioH relative to DMB-S-MMP (BioH): significantly attenuated

CCC(C)(C)C(=O)SCCCC(=O)OC [DMB-S-MMB, dimethylbutyryl-S-methyl mercaptobutyrate]
Initial Velocity (ki) (LovD): 0.78 min⁻¹

CCC(C)(C)C(=O)SCC(=O)OC [DMB-S-MTG, dimethylbutyryl-S-methyl thioglycolate]
Initial Velocity (ki) (LovD): 0.03 min⁻¹ | decrease in the rate of hydrolysis by BioH relative to DMB-S-MMP (BioH): 2.5 fold

CCC(C)(C)C(=O)SCCNC(C)=O [DMB-S-NAC, α-dimethylbutyryl-S-N-acetylcysteamine]
Initial Velocity (ki) (LovD): 0.02 min⁻¹ | conversion of monacolin J to simvastatin, low cell-density fermentation (E. coli BL21(DE3)/pAW31; 1 mM monacolin J, after two days of culturing): ~90%

CC(=O)NCCSC(=O)c1ccccc1 [benzoyl-SNAC]
apparent kcat (initial turnover rate in the linear range) of monacolin J acylation (LovD): 0.002 s⁻¹ | conversion of monacolin J (benzoylation) in vivo (E. coli BL21(DE3)/pAW31; 0.8 mM monacolin J, 18° C., within 20 hours post-induction): 84%

CCCC(=O)SCCNC(C)=O [butyryl-SNAC]
apparent kcat (initial turnover rate in the linear range) of monacolin J acylation (LovD): 0.0015 s⁻¹

CC(C)(COP(=O)(O)OP(=O)(O)OC[C@H]1O[C@@H](n2cnc3c(N)ncnc32)[C@H](O)[C@@H]1OP(=O)(O)O)[C@@H](O)C(=O)NCCC(=O)NCCSC(=O)CC(=O)O [malonyl-CoA, reference compound]
substrate competence for LovD (LovD): inactive

C[C@H]1C=C2C=C[C@H](C)[C@H](CC[C@@H]3C[C@@H](O)CC(=O)O3)[C@H]2[C@@H](O)C1 [monacolin J]
Km (LovD; DMB-S-MMP fixed at 2 mM, monacolin J 0.2-5 mM): 780 ± 120 µM

CCCCCCCCCCCCCCCC(=O)SCCNC(=O)CCNC(=O)[C@H](O)C(C)(C)COP(=O)(O)OP(=O)(O)OC[C@H]1O[C@@H](n2cnc3c(N)ncnc32)[C@H](O)[C@@H]1OP(=O)(O)O [palmitoyl-CoA, reference compound]
substrate competence for LovD (LovD): inactive

CC[C@H](C)C(=O)SCCNC(C)=O [α-S-methylbutyryl-SNAC]
apparent kcat (initial turnover rate in the linear range) of monacolin J acylation (LovD): ~0.00067 s⁻¹

CC(O)CC(=O)SCCNC(=O)CCNC(=O)[C@H](O)C(C)(C)COP(=O)(O)OP(=O)(O)OC[C@H]1O[C@@H](n2cnc3c(N)ncnc32)[C@H](O)[C@@H]1OP(=O)(O)O (stereo partly drawn) [β-hydroxylbutyryl-CoA, reference compound]
substrate competence for LovD (LovD): excellent substrates

B1: BioH (Escherichia coli K-12) (protein)
chain: T2 sequence (P13001 1-256)
notes: The bioH gene was amplified from E. coli genomic DNA by PCR with flanking restriction sites NdeI and EcoRI; 6xHis (N); made in house; host or cells: E. coli BL21(DE3)/pXK8 (pET28a)
Km [1]: 229 ± 26 µM | kcat [1]: 260 ± 45 s⁻¹
